ChEMBL document CHEMBL2434843, “Synthesis and evaluation of α-ketotriazoles and α,β-diketotriazoles as inhibitors of Mycobacterium tuberculosis” (Eur J Med Chem, 2013)
Converted amounts (≈) assume the structure as drawn.

What was measured:
Type in all cases: functional
[1] = test system: Mycobacterium tuberculosis; assay: Antitubercular activity against multidrug-resistant Mycobacterium tuberculosis IC3 assessed as growth inhibition by BACTEC MGIT 960 method
[2] = test system: Mycobacterium tuberculosis; assay: Antitubercular activity against multidrug-resistant Mycobacterium tuberculosis IC1 assessed as growth inhibition by BACTEC MGIT 960 method
[3] = test system: Mycobacterium tuberculosis; assay: Antitubercular activity against multidrug-resistant Mycobacterium tuberculosis IC2 assessed as growth inhibition by BACTEC MGIT 960 method

With O=C(C(=O)c1ccc(Cl)cc1Cl)c1cn(Cc2ccccc2)nn1 the MIC [1] was 7.6 µM (≈ 2.74 µg/mL), the MIC [2] was 7.6 µM (≈ 2.74 µg/mL) and the MIC [3] was 7.6 µM (≈ 2.74 µg/mL).

For COc1ccc(C(=O)C(=O)c2cn(Cc3ccccc3)nn2)cc1, the MIC [1] was 6.9 µM (≈ 2.22 µg/mL), the MIC [2] was 6.9 µM (≈ 2.22 µg/mL) and the MIC [3] was 6.9 µM (≈ 2.22 µg/mL).
